Laboratory results as given in PubChem BioAssay (NCI).
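Grown in 96-well plates, cells were treated for 48 hours with each compound at five concentrations. Insufficient inhibition: endpoint recorded as highest concentration tested. GI50 marks 50% less growth. At the TGI there is no net growth.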

How the values were obtained:
Assay in all cases: NCI anticancer screen, dose series, 48 h
HOP-62 NSCLC = system: HOP-62 NSCLC
HCT-15 colon = system: HCT-15 colon
MDA-MB-435 = system: MDA-MB-435
KM12 colon = system: KM12 colon
HCT-116 colon = system: HCT-116 colon
PC-3 prostate = system: PC-3 prostate
NCI-H460 lung = system: NCI-H460 lung
OVCAR-3 ovarian = system: OVCAR-3 ovarian
786-0 renal = system: 786-0 renal
TK-10 renal = system: TK-10 renal

Structure (SMILES)	GI50 (HOP-62 NSCLC) [µM]	TGI (HOP-62 NSCLC) [µM]	GI50 (HCT-15 colon) [µM]	TGI (HCT-15 colon) [µM]	GI50 (MDA-MB-435) [µM]	TGI (MDA-MB-435) [µM]	GI50 (KM12 colon) [µM]	TGI (KM12 colon) [µM]	GI50 (HCT-116 colon) [µM]	TGI (HCT-116 colon) [µM]	GI50 (PC-3 prostate) [µM]	TGI (PC-3 prostate) [µM]	GI50 (NCI-H460 lung) [µM]	TGI (NCI-H460 lung) [µM]	GI50 (OVCAR-3 ovarian) [µM]	TGI (OVCAR-3 ovarian) [µM]	GI50 (786-0 renal) [µM]	TGI (786-0 renal) [µM]	GI50 (TK-10 renal) [µM]	TGI (TK-10 renal) [µM]
OCc1ccc(N2CCc3ccccc3C2)cc1Cl	0.0222	24.7	3.35	41.6	23.2	> 75.8	13.6	40.1	< 0.01	14.1	17.2	> 62.3	< 0.0179	0.174	< 0.0161	0.0389	16.6	51.7	–	–
COc1cc(/C=C/C(=O)N2CCN(C(=O)c3cc(OC)c(OC)c(OC)c3)CC2)ccc1OCCCOc1cc2c(cc1OC)C(=O)N1CCC[C@H]1C=N2	0.326	0.933	3.18	27.7	0.178	0.343	0.25	0.699	–	–	0.506	> 34.3	0.333	10.3	0.219	0.504	0.491	10.6	0.45	4.37
NCOC(=O)Cc1ccc(Br)cc1	–	> 100	–	> 100	–	–	–	–	–	> 100	–	> 100	–	> 100	–	> 100	–	> 100	–	> 100
COC(=O)C1=C(C(=O)OC)C2(C)Nc3ccccc3C2=C(c2ccccc2)C1 (stereo not drawn)	–	50.1	–	51.8	–	–	–	30.3	–	44	–	–	–	42.9	–	52.2	–	81.4	–	69.9
COc1cc(C(=O)N/N=C/c2ccc(N(C)C)cc2)cc(OC)c1OC	0.598	> 100	0.447	> 100	0.0743	0.307	0.428	26.4	0.392	> 100	0.422	> 100	0.376	31.7	0.259	0.605	0.66	> 100	–	–
CC1(c2ccccc2)CC(c2cccc([N+](=O)[O-])c2)=NO1 (stereo not drawn)	–	> 100	–	> 100	–	–	–	> 100	–	> 100	–	–	–	> 100	–	> 100	–	> 100	–	> 100
CC(C)NC(=O)CCN(C(=O)O)S(=O)(=O)c1ccc(NC(=O)c2ccccc2)cc1	–	> 100	–	> 59.8	–	–	–	> 100	–	> 54.1	–	–	–	> 59.7	–	> 100	–	> 100	–	> 100
COC1=CC(c2ccc[nH]2)=N/C1=C\c1[nH]c(C)c(C(=O)CCCCC(=O)Oc2ccc3c(c2)CCC2C3CC[C@]3(C)[C@@H](O)CC[C@@H]23)c1C (stereo partly drawn)	17.3	> 100	3.56	> 100	5.47	> 100	6.66	> 100	3.1	13.6	–	–	5.71	> 100	> 100	> 100	5.64	> 100	33.8	> 100
Clc1ccc(-c2cc(-c3ccccc3)nc(NCCNc3ccnc4cc(Cl)ccc34)n2)cc1	1.68	3.48	1.63	3.25	1.77	3.27	1.81	3.46	1.65	3.41	–	–	1.95	3.85	1.77	3.36	1.67	3.41	1.8	3.42
Cc1ccc(NC(=O)/C(Cl)=C(/Cl)C(=O)O)cc1	–	> 100	–	28.9	–	–	–	34.6	–	28.2	–	–	–	> 100	–	32.4	–	32.6	–	33
O=C(COC(=O)c1cccc2c(=O)c3ccccc3[nH]c12)Nc1ccc(C(=O)O)cc1	–	> 100	–	–	–	–	–	> 100	–	> 100	–	–	–	> 100	–	> 100	–	> 100	–	> 10
CC1=CC(N2C(=O)C(C)=CC2O)NC1=O (stereo not drawn)	–	> 100	–	–	–	–	–	> 100	–	> 100	–	–	–	> 100	–	> 100	–	> 100	–	> 100
COc1cc(/C=C2\C[C@H]3[C@@H]4CC=C5C[C@@H](O)CC[C@]5(C)[C@H]4CC[C@]3(C)[C@H]2O)ccc1OCCCn1ccnc1	3.45	20	–	–	3.52	12.6	1.82	7.2	–	–	1.45	5.03	1.52	5.11	0.946	2.9	1.23	3.09	0.738	2.09
O=C1CCSC2=C1SCc1sccc12	–	> 100	–	> 100	–	–	–	> 100	–	–	–	–	–	> 100	–	> 100	–	> 100	–	> 100
CC(=O)c1cc(C(=O)c2ccc3c(c2)Sc2ccccc2N3)c2cc(C)ccn12	0.146	> 100	0.0704	> 100	–	–	0.0425	> 100	0.0414	> 100	0.0506	> 100	0.0465	> 100	0.0323	0.112	0.0965	> 100	> 100	> 100
O=S(=O)(/N=c1/scc(-c2ccccc2)n1-c1ccccc1)c1ccc(N2N=C3c4ccccc4CC3C2c2cccs2)cc1 (stereo not drawn)	73.2	> 100	67.3	> 100	38.7	> 100	32.1	> 100	–	–	75	> 100	95.1	> 100	> 100	> 100	64.2	> 100	32.7	75.3
